Experimental data published in patent US8133913B2, “Substituted indeno [1,2-b]indole derivatives as novel inhibitors of protein kinase CK2 and their use as tumor therapeutic agents, cytostatics and diagnostic aids” (Heinrich-Heine Universitat Dusseldof, priority 2006, dated 2012).
Where two headings read alike, the source gives them in different places.

Assays:
COT = target: T1, COT (Homo sapiens, UniProt P41279); experiment: Radiometric protein kinase assay (33PanQinase Activity Assay); type: biochemical
T1 construct: made in house; host or cells: Sf9 insect cells (baculovirus)
Description: (§1) AKTI1, ARK5, Aurora-A, Aurora-B, B-RAF-VE, CDK2/CycA, CDK4/CycD1, CK2-alpha1 (catalytic subunit of CK2), EGF-R, EPHB4, ERBB2, FAK, IGF1-R, SRC, VEGF-R2, VEGF-R3, FLT3, INS-R, MET, PDGFR-beta, PLK1, SAK, TIE2, COT.
(§2) All the protein kinases were expressed in Sf9 insect cells as human recombinant GST fusion proteins or His-tagged proteins by the baculovirus expression system. Kinases were purified by affinity chromatography either by GSH-agarose (Sigma) or Ni—NTH-agarose (Qiagen). The purity of the kinases was tested by SDS-PAGE/silver staining, and the identity of the kinases was verified by Western blot analysis with specific antibodies or mass spectroscopy.
(§3) A radiometric protein kinase assay (33PanQinase® Activity Assay) was used to measure the kinase activity for the 24 protein kinases. The kinase assays were carried out in 96-well FlashPlates™ from Perkin Elmer/NEN (Boston, Mass., USA) in a reaction volume of 50 μl. The reaction mixture was pipetted in 4 steps in the following sequence: • 20 μl of assay buffer • 5 μl of ATP solution (in H2O) • 5 μl of test compound (in 10% DMSO) • 10 μl of substrate/10 μl of enzyme solution (premixed)
(§4) The assays for all the enzymes contained 60 mM HEPES-NaOH, pH 7.5, 3 mM MgCl2, 3 mM MnCl2, 3 μM Na orthovanadate, 1.2 mM DTT, 50 μg/ml PEG20000, 1 μM [γ-^33P]-ATP (about 5×10^5 cpm per well).
(§5) The reaction mixture was incubated at 30° C. for 80 minutes. The reaction was stopped with 50 μl of 2% (v/v) H3PO4. The plates were aspirated and washed twice with 200 μl of 0.9% (w/v) NaCl. The incorporation of ^33Pi was determined using a microtiter plates scintillation counter (Microbeta Trilux, Wallac).

EPHB4 = target: T2, EPHB4 (Homo sapiens, UniProt P54760); experiment: as above; type: biochemical
T2 construct: made in house; host or cells: Sf9 insect cells, baculovirus
T2 sequence (P54760 16-987): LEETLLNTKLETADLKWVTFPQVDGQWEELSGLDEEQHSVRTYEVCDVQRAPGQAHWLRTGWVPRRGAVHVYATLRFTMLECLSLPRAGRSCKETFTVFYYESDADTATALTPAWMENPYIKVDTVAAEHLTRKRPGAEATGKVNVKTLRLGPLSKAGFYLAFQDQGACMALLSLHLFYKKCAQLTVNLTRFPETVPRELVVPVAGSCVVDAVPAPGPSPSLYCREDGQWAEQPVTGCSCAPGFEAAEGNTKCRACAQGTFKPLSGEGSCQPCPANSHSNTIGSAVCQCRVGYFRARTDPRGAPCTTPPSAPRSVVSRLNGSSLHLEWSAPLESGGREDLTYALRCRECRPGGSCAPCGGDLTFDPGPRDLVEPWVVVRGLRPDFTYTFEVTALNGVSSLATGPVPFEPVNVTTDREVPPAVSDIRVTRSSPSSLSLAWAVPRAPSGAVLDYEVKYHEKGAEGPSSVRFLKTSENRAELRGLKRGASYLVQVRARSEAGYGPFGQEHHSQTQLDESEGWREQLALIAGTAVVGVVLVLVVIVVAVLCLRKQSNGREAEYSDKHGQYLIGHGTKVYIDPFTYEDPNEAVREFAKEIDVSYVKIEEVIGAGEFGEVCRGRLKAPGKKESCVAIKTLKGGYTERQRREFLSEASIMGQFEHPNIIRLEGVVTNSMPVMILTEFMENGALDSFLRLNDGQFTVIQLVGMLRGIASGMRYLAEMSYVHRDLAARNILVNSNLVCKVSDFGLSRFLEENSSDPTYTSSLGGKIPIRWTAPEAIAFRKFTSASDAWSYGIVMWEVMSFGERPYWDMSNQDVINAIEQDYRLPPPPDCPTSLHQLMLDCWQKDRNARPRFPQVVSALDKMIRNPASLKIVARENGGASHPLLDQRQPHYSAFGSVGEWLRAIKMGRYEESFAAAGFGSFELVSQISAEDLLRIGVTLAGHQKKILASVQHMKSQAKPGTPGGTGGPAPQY
Description: as §1, §2, §3, §4, §5

IGF1-R = target: T3, IGF1-R (Homo sapiens, UniProt P08069); experiment: as above; type: biochemical
T3 construct: made in house; host or cells: Sf9 insect cells, baculovirus
Description: as §1, §2, §3, §4, §5

Aurora-A = target: T4, Aurora-A (Homo sapiens, UniProt O14965); experiment: as above; type: biochemical
T4 construct: made in house; host or cells: Sf9 insect cells, baculovirus
T4 sequence (O14965 1-403): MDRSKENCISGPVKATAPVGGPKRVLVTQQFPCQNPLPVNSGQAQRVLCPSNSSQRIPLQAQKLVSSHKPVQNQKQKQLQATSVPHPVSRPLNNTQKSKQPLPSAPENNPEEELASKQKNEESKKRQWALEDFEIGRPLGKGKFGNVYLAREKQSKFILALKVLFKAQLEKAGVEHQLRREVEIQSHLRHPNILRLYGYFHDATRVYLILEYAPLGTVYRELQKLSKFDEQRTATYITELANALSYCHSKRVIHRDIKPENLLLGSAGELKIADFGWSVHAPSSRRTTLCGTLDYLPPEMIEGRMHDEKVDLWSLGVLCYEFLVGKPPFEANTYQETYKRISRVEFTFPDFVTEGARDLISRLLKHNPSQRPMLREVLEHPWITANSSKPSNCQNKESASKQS
Description: as §1, §2, §3, §4, §5

PDGFR-beta = target: T5, PDGFR-beta (Homo sapiens, UniProt P09619); experiment: as above; type: biochemical; conditions: 1 μM ATP
T5 construct: made in house; host or cells: Sf9 insect cells, baculovirus

EGF-R = target: T6, EGF-R (Homo sapiens, UniProt P00533); experiment: as above; type: biochemical; conditions: 1 μM ATP
T6 construct: made in house; host or cells: Sf9 insect cells, baculovirus

MCF-7 = experiment: Proliferation of tumor cell lines (Bracht et al.); type: cell-based; conditions: Homo sapiens, MCF7, read-out: IC50 (μM) Mean, inhibition of cell proliferation
LCLC = experiment: Proliferation of tumor cell lines (Bracht et al.); type: cell-based; conditions: read-out: IC50 (μM) Mean, inhibition of cell proliferation
A427 = experiment: Proliferation of tumor cell lines (Bracht et al.); type: cell-based; conditions: Homo sapiens, A-427, read-out: IC50 (μM) Mean, inhibition of cell proliferation
RT-4 = experiment: Proliferation of tumor cell lines (Bracht et al.); type: cell-based; conditions: Homo sapiens, read-out: IC50 (μM) Mean, inhibition of cell proliferation
[1] = 1 μM ATP, autophosphorylation, read-out: IC50 values [μM] COT
[2] = 1 μM ATP, read-out: IC50 values [μM] EPHB4
[3] = 1 μM ATP, read-out: IC50 values [μM] IGF1-R
[4] = 1 μM ATP, read-out: IC50 values [μM] Aurora-A

T1 sequence (P41279 whole entry): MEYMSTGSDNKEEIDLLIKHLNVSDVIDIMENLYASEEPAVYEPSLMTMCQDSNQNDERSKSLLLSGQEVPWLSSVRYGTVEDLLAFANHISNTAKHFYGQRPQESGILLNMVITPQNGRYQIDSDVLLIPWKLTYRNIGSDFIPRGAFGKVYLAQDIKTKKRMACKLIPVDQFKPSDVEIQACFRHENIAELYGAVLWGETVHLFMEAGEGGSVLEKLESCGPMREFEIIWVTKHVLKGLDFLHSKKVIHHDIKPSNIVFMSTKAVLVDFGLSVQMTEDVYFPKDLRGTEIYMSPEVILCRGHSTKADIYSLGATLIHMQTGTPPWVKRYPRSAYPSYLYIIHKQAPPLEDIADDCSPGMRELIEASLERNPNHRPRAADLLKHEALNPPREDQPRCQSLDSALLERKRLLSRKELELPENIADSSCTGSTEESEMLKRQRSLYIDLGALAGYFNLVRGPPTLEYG
T3 sequence (P08069 31-1367): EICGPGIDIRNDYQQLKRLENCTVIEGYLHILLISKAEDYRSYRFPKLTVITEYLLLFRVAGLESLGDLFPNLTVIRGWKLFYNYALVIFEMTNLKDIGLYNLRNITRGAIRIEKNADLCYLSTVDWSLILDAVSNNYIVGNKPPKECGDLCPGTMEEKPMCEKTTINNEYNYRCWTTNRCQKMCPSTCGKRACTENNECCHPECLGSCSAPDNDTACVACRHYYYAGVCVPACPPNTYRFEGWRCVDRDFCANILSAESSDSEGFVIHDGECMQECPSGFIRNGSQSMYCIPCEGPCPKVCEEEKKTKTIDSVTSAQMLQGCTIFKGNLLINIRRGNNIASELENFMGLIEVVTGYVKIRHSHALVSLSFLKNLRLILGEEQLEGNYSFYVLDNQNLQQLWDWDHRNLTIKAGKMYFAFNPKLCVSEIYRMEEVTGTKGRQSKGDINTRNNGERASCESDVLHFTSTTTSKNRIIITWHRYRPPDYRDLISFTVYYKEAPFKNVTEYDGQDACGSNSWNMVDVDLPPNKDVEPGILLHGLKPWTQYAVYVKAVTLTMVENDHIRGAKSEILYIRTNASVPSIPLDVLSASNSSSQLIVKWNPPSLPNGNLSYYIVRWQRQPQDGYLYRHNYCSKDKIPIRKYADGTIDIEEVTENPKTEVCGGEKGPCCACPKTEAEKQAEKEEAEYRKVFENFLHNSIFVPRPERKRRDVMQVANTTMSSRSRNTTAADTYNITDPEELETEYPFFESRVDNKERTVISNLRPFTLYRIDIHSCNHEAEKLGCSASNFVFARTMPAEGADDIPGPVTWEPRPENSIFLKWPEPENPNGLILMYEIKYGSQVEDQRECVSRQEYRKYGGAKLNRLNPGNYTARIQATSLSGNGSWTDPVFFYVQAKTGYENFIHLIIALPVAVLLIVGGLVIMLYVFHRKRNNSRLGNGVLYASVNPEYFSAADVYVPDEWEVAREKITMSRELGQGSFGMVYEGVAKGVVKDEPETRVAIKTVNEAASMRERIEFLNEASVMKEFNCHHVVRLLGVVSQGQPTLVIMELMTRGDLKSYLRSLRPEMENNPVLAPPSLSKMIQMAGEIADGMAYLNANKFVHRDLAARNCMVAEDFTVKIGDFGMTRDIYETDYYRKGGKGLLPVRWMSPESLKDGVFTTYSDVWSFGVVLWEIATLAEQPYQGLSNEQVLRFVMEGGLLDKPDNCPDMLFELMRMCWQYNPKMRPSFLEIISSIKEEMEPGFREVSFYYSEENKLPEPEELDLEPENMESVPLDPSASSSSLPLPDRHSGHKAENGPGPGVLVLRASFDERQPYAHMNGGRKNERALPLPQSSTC
T6 sequence (P00533 25-1210): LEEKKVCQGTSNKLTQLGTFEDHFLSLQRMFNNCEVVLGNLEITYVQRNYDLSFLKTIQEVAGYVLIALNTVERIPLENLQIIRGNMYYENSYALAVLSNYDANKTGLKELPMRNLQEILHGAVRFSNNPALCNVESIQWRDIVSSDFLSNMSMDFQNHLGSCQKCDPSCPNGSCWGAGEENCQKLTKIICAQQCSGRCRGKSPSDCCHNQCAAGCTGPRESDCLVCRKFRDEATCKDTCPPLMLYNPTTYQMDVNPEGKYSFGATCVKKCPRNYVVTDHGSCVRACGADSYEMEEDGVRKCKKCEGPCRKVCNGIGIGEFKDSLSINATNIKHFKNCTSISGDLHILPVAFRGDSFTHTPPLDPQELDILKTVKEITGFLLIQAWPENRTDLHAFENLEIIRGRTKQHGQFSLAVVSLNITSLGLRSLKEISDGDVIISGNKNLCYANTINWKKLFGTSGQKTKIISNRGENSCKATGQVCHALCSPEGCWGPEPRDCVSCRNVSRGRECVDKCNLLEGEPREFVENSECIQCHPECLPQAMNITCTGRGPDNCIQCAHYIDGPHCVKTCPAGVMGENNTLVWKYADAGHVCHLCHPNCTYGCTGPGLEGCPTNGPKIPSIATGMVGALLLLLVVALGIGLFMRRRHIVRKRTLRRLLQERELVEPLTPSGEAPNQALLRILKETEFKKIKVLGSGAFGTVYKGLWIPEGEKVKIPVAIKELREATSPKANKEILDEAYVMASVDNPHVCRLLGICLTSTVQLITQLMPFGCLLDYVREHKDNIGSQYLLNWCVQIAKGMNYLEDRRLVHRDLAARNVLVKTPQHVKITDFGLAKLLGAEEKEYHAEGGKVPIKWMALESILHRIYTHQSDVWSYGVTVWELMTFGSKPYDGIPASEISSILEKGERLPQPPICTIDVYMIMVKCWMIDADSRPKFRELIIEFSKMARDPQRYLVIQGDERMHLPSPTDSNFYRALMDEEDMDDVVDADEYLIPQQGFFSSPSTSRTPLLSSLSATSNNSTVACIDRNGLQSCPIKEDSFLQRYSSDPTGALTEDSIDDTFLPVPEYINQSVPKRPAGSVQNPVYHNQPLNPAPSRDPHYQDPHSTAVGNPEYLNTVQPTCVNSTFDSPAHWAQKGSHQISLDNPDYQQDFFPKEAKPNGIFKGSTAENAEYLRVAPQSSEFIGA
T5 sequence (P09619 33-1106): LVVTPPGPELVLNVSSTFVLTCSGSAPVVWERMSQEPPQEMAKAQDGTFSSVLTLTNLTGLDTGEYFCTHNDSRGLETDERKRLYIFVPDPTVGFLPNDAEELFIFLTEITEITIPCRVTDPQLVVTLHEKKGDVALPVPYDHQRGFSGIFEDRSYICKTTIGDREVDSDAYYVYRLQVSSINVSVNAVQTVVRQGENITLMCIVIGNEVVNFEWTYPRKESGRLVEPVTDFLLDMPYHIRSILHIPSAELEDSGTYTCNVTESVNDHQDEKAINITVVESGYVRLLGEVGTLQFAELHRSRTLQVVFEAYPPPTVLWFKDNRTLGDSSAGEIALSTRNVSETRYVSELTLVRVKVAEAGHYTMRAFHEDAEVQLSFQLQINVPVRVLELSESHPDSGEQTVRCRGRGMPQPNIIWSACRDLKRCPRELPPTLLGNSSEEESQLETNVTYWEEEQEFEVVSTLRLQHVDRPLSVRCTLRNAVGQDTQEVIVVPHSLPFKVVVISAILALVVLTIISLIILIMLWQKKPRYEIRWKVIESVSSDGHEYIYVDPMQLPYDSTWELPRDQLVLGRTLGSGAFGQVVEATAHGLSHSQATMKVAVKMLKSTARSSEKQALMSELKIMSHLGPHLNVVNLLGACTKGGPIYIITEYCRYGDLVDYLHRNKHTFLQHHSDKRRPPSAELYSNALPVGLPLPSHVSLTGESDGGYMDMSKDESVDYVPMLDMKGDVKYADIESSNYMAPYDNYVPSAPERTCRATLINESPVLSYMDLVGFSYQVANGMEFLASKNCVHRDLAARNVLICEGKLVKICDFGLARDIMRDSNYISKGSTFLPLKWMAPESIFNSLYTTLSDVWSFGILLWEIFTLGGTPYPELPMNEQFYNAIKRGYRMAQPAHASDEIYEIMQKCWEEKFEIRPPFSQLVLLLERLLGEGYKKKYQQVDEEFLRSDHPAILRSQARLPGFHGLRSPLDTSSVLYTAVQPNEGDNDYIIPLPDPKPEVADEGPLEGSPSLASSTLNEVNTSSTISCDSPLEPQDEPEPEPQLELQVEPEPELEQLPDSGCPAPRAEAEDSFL

Compound	IC50 (COT)	IC50 (EPHB4)	IC50 (IGF1-R)	IC50 (Aurora-A)	IC50 (PDGFR-beta)	IC50 (COT; [1])	IC50 (EPHB4; [2])	IC50 (IGF1-R; [3])	IC50 (Aurora-A; [4])	IC50 (EGF-R)	IC50 (MCF-7)	IC50 (LCLC)	IC50 (A427)	IC50 (RT-4)
CC(C)n1c2c(c3c1-c1ccccc1C3=O)C(=O)CCC2 [Compound 4b, 5-Isopropyl-5,6,7,8-tetrahydroindeno[1,2-b]indole-9,10-dione]	> 10 µM	> 10 µM	> 10 µM	> 10 µM	–	–	–	–	–	–	–	–	–	–
CC(C)n1c2c(=O)ccc(=O)c2c2c(=O)c3ccccc3c21 [Compound 6b, 5-Isopropyl-5H-indeno[1,2-b]indole-6,9,10-trione]	–	–	–	–	> 10 µM	9.3 µM	> 10 µM	2.9 µM	5.8 µM	> 10 µM	–	–	–	–
O=c1ccc(=O)c2c1c1c(=O)c3ccccc3c1n2Cc1ccccc1 [Compound 6c, 5-Benzyl 5,6,9,10-tetrahydroindeno[1,2-b]indole-6,9,10-trione]	–	–	–	–	> 10 µM	4.4 µM	9.3 µM	2.5 µM	> 10 µM	2.5 µM	3.27 µM	4.14 µM	3.74 µM	> 20 µM
